In patent publication US10760110B2, “Antibiotic testing and screening system” (priority 2017, dated 2020):
Read-outs that look alike come from different tables or passages of the source.

Tested on: K. pneumoniae NVT1001 strains with ESBL or AmpC β-lactamase plasmids
Assay: Etest MIC of β-lactams, OmpK35/36 loss, ΔramR and/or extended-spectrum β-lactamase and AmpC β-lactamase (Table 8)
Assay type: cell-based, Klebsiella pneumoniae
Details: Klebsiella pneumoniae
Procedure: DNA fragments of the resistance genes along with their flanking regions were amplified from clinical plasmids via PCR with specific primer pairs. The resulting PCR fragments were digested and then cloned into the plasmid pACYC177 or pACYC184. The resulting plasmids were then transformed into K. pneumoniae strain NVT1001 via electroporation. The recombinant bacteria were plated onto LB agar plates containing kanamycin (50 mg/L) or chloramphenicol (50 mg/L), and the presence of the cloned gene was confirmed via PCR and DNA sequencing.
The MICs of antibiotics were determined using the Etest (Biodisk AB, Sweden) according to the manufacturer's instructions. The MICs from the Etest, which fall between standard two-fold dilutions, were rounded up to the next highest two-fold value. The MICs of ceftazidime and cefotaxime against K. pneumoniae NVT1001 harbouring the pACYC177 plasmid with blaOXA-48 were further determined using a broth microdilution test according to the recommendations of the CLSI,^25 and the results were interpreted according to the breakpoints established by the CLSI in 2017.^25 Meanwhile, due to the lack of CLSI breakpoints in 2016 and 2017, the results for cephalothin were interpreted according to the breakpoints established by the CLSI in 2015,^26 and the results for moxifloxacin were interpreted according to the breakpoints established by the EUCAST in 2017.^27

[1] = CMY-2 on pACYC177, WT (NVT1001), read-out: MIC
[2] = CMY-2 on pACYC177, Δ35 (ΔompK35 mutant)
[3] = CMY-2 on pACYC177, Δ35/36 (ΔompK35/36 mutant)
[4] = CMY-2 on pACYC177, Δ36 (ΔompK36 mutant)
[5] = CMY-2 on pACYC177, ΔramR mutant
[6] = CMY-2 on pACYC177, ΔramRΔ35 (ΔramRΔompK35 mutant)
[7] = CMY-2 on pACYC177, ΔramRΔ35/36 (ΔramRΔompK35/36 mutant)
[8] = CMY-2 on pACYC177, ΔramRΔ36 (ΔramRΔompK36 mutant)
[9] = CTX-M-14 on pACYC177, WT (NVT1001), read-out: MIC
[10] = CTX-M-14 on pACYC177, Δ35 (ΔompK35 mutant)
[11] = CTX-M-14 on pACYC177, Δ35/36 (ΔompK35/36 mutant)
[12] = CTX-M-14 on pACYC177, Δ36 (ΔompK36 mutant)
[13] = CTX-M-14 on pACYC177, ΔramR mutant
[14] = CTX-M-14 on pACYC177, ΔramRΔ35 (ΔramRΔompK35 mutant)
[15] = CTX-M-14 on pACYC177, ΔramRΔ35/36 (ΔramRΔompK35/36 mutant)
[16] = CTX-M-14 on pACYC177, ΔramRΔ36 (ΔramRΔompK36 mutant)
[17] = CTX-M-15 on pACYC177, WT (NVT1001), read-out: MIC
[18] = CTX-M-15 on pACYC177, Δ35 (ΔompK35 mutant)
[19] = CTX-M-15 on pACYC177, Δ35/36 (ΔompK35/36 mutant)
[20] = CTX-M-15 on pACYC177, Δ36 (ΔompK36 mutant)
[21] = CTX-M-15 on pACYC177, ΔramR mutant
[22] = CTX-M-15 on pACYC177, ΔramRΔ35 (ΔramRΔompK35 mutant)
[23] = CTX-M-15 on pACYC177, ΔramRΔ35/36 (ΔramRΔompK35/36 mutant)
[24] = CTX-M-15 on pACYC177, ΔramRΔ36 (ΔramRΔompK36 mutant)
[25] = DHA-1-AmpR on pACYC177, WT (NVT1001), read-out: MIC
[26] = DHA-1-AmpR on pACYC177, Δ35 (ΔompK35 mutant)
[27] = DHA-1-AmpR on pACYC177, Δ35/36 (ΔompK35/36 mutant)
[28] = DHA-1-AmpR on pACYC177, Δ36 (ΔompK36 mutant)
[29] = DHA-1-AmpR on pACYC177, ΔramR mutant
[30] = DHA-1-AmpR on pACYC177, ΔramRΔ35 (ΔramRΔompK35 mutant)
[31] = DHA-1-AmpR on pACYC177, ΔramRΔ35/36 (ΔramRΔompK35/36 mutant)
[32] = DHA-1-AmpR on pACYC177, ΔramRΔ36 (ΔramRΔompK36 mutant)
[33] = SHV-12 on pACYC177, WT (NVT1001), read-out: MIC
[34] = SHV-12 on pACYC177, Δ35 (ΔompK35 mutant)
[35] = SHV-12 on pACYC177, Δ35/36 (ΔompK35/36 mutant)
[36] = SHV-12 on pACYC177, Δ36 (ΔompK36 mutant)
[37] = SHV-12 on pACYC177, ΔramR mutant
[38] = SHV-12 on pACYC177, ΔramRΔ35 (ΔramRΔompK35 mutant)
[39] = SHV-12 on pACYC177, ΔramRΔ35/36 (ΔramRΔompK35/36 mutant)
[40] = SHV-12 on pACYC177, ΔramRΔ36 (ΔramRΔompK36 mutant)
[41] = no supplemental plasmid, WT (NVT1001), read-out: MIC
[42] = no supplemental plasmid, Δ35 (ΔompK35 mutant)
[43] = no supplemental plasmid, Δ35/36 (ΔompK35/36 mutant)
[44] = no supplemental plasmid, Δ36 (ΔompK36 mutant)
[45] = no supplemental plasmid, ΔramR mutant
[46] = no supplemental plasmid, ΔramRΔ35 (ΔramRΔompK35 mutant)
[47] = no supplemental plasmid, ΔramRΔ35/36 (ΔramRΔompK35/36 mutant)
[48] = no supplemental plasmid, ΔramRΔ36 (ΔramRΔompK36 mutant)

Measured: MIC

CC(C)(O/N=C(\C(=O)N[C@@H]1C(=O)N2C(C(=O)[O-])=C(C[n+]3ccccc3)CS[C@H]12)c1csc(N)n1)C(=O)O [Ceftazidime]
8 µg/mL: [11] | [13] | [14] | [16]
128 µg/mL: [26] | [31] | [36]
256 µg/mL: [21]
64 µg/mL: [17] | [20] | [29] | [30] | [32] | [33]
2 µg/mL: [12] | [45] | [46] | [47] | [48]
0.25 µg/mL: [41]
32 µg/mL: [28]
> 256 µg/mL: [1] | [2] | [3] | [4] | [5] | [6] | [7] | [8] | [18] | [19] | [22] | [23] | [24] | [27] | [34] | [35] | [37] | [38] | [39] | [40]
0.5 µg/mL: [42] | [44]
16 µg/mL: [15] | [25]
1 µg/mL: [9] | [43]
4 µg/mL: [10]

C[C@H]1[C@H](NC(=O)/C(=N\OC(C)(C)C(=O)O)c2csc(N)n2)C(=O)N1S(=O)(=O)O [Aztreonam]
32 µg/mL: [11] | [15]
1 µg/mL: [25] | [28] | [47] | [48]
0.03 µg/mL: [41]
64 µg/mL: [1] | [4] | [5] | [6] | [7] | [8]
0.5 µg/mL: [43] | [45] | [46]
0.25 µg/mL: [42]
16 µg/mL: [10] | [13] | [14] | [16] | [27]
128 µg/mL: [2] | [33] | [36]
2 µg/mL: [9] | [12]
0.06 µg/mL: [44]
> 256 µg/mL: [18] | [19] | [20] | [21] | [22] | [23] | [24] | [34] | [35] | [37] | [38] | [39] | [40]
256 µg/mL: [3] | [17]
4 µg/mL: [29] | [30]
8 µg/mL: [26] | [31] | [32]
